One experiment addresses T1, A2aR (Homo sapiens, UniProt P29274).
T1 construct: expressed in transfected cells
The experiment in a line: A2aR biochemical assay (TR-FRET binding, Tag-lite A2aR labelled cells, fluorescent antagonist). Conditions: 10 nM fluorescent A2aR antagonist; for IC50: four-parameter curve fit, read-out: Potency (IC50 values) of selected compounds in A2aR, group; for inhibition at 20 µM: read-out: % inhibition at 20 μM (Percent inhibition data in A2aR). The protocol:
The compounds of present invention were assayed for A2aR enzyme binding activity in a TR-FRET based method. Typically, 10 μL of A2aR labelled cells in assay buffer (Tag-lite, 1×) is added to a 384-well plate containing 5 μL of a compound of present invention in final 1% DMSO, serially diluted in 1:5 in a 5-6 point titration. The aforesaid compound and cells are incubated for 30 minutes at room temperature. Next, 5 μL of A2aR antagonist (fluorescent ligand) in assay buffer is added to the plate. The final concentration of A2aR antagonist is 10 nM. Following 30 minutes reaction at room temperature, the plate was read on a plate reader (Ex: 340 nm Em: 615 nm and 665 nm) to measure the binding of test compound to A2aR cells. The results are interpreted as percentage inhibition as presented in Table-2A of binding by the test compound with respect to the DMSO control.
For orientation: In TR-FRET formats the signal depends on donor and acceptor labels being close together.

In experiment [1] the target is T2, human-CD73 (Trp27-Lys547, His-tag) (Homo sapiens, UniProt P21589).
T2 construct: human-CD73 (Trp27-Lys547, His-tag); His-tag
T2 sequence (P21589 27-547): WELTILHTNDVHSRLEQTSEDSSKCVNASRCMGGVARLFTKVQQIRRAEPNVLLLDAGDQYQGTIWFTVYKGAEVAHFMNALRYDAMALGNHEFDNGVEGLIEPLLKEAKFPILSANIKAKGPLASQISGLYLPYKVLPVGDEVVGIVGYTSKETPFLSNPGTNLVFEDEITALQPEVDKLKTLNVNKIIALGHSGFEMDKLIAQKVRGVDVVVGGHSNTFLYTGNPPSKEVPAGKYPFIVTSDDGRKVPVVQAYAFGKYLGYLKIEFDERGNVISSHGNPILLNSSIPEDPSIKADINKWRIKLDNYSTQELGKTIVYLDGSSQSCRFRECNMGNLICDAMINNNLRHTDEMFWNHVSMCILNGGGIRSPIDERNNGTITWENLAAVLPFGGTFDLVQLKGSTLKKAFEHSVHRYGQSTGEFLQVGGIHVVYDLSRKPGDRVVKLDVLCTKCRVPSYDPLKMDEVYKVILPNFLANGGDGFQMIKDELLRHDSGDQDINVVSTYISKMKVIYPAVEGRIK
As to the kind of experiment: CD73 biochemical assay (colorimetric, Malachite Green phosphate detection). Conditions: 2 nM CD73, 50 μM AMP; for inhibition at 20 µM: read-out: % inhibition at 20 μM (Percent inhibition data in CD73); for IC50: four-parameter curve fit, read-out: Potency (IC50 values) of selected compounds in CD73, group. The protocol:
A colorimetric-based method was used for assaying compounds of the invention for CD73 enzyme inhibitory activity. Human CD73 catalyzes the conversion of AMP to adenosine with the release of orthophosphate. A Malachite Green Phosphate Detection kit is used to measure the formation of orthophosphate product. […] A compound of the present invention and enzyme are incubated for 30 minutes at room temperature. Next, 20 μL of AMP in assay buffer is added to the plate. The final concentration of CD73 and AMP are 2 nM and 50 μM respectively. Following 30 minutes reaction at room temperature, 20 μL of Malachite reagent is added to all the reaction wells. The formation of green complex formed between Malachite Green, molybdate and free orthophosphate is measured on a plate reader (620 nm).

Where [2] appears, read: 20 μM compound, vs DMSO control.

Structures can show the parent of a compound that is named as a salt.

T1 sequence (P29274 whole entry): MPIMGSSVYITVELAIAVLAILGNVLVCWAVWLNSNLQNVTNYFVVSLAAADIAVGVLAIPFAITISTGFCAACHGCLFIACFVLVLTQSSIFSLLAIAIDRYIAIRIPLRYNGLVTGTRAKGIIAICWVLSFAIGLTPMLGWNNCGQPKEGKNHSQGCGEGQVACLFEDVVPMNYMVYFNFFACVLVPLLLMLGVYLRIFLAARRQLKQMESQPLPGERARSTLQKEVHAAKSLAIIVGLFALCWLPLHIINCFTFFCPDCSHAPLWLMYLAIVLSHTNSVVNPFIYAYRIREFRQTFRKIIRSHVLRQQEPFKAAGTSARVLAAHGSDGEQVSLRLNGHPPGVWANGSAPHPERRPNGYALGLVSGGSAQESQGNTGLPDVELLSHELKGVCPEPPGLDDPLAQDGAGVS

One may read the % inhibition as the share of the control response that was lost under treatment. As usually defined, the IC50 is the point on the concentration scale where inhibition reaches its midpoint. The inhibition is the percentage by which the read-out fell short of the control. Turning to `NC(=O)c1cc(S(=O)(=O)Nc2ccc(CCCNc3nc(N)n4nc(-c5ccco5)nc4n3)cc2)cc(Cl)c1O` [Example A11, 5-(N-(4-(3-((7-amino-2-(furan-2-yl)-[1,2,4]triazolo[1,5-a][1,3,5]triazin-5-yl)amino)propyl)phenyl)sulfamoyl)-3-chloro-2-hydroxybenzamide], the “% inhibition at 20 μM (Percent inhibition data in A2aR)” value on A2aR (setting [2]) was determined as 88%. The figures for the half-maximal inhibitory concentration (IC50) (on A2aR; in experiment [1]) were less than 25 nM and less than 100 nM, respectively. In experiment [1] (20 μM compound), the inhibition at 20 µM came out at 98%.

Consider `NC(=O)c1cc(S(=O)(=O)Nc2ccc(CCNc3nc(N)n4nc(-c5ccco5)nc4n3)cc2F)cc(Cl)c1O` [Example A7, 5-(N-(4-(3-((7-amino-2-(furan-2-yl)-[1,2,4]triazolo[1,5-a][1,3,5]triazin-5-yl)amino)ethyl)-2-fluorophenyl)sulfamoyl)-3-chloro-2-hydroxybenzamide], for which the inhibition at 20 µM was determined as 84% on A2aR (setting [2]) and 42% in experiment [1] (20 μM compound).

For `NC(=O)c1cc(S(=O)(=O)Nc2cccc(CNc3nc(N)n4nc(-c5ccco5)nc4n3)c2)cc(Cl)c1O` [Example A1, 5-(N-(3-(((7-amino-2-(furan-2-yl)-[1,2,4]triazolo[1,5-a][1,3,5]triazin-5-yl)amino)methyl)phenyl)sulfamoyl)-3-chloro-2-hydroxybenzamide], the inhibition at 20 µM on A2aR (setting [2]) came out at 78%; in experiment [1] (20 μM compound), 91%. For the same molecule, the half-maximal inhibitory concentration (IC50) was less than 25 nM on A2aR and more than 1000 nM in experiment [1].

For the molecule `NC(=O)c1cc(S(=O)(=O)Nc2ccc(CCNc3nc(N)n4nc(-c5ccco5)nc4n3)nc2)cc(Cl)c1O` [Example E1, 5-(N-(6-(2-((7-amino-2-(furan-2-yl)-[1,2,4]triazolo[1,5-a][1,3,5]triazin-5-yl)amino)ethyl)pyridin-3-yl)sulfamoyl)-3-chloro-2-hydroxybenzamide], the results for the inhibition at 20 µM (on A2aR (setting [2]); in experiment [1] (20 μM compound)) were 83% and 86%, respectively. Also, the IC50 in experiment [1] is more than 1000 nM.

As for `NC(=O)c1cc(S(=O)(=O)Nc2ccc(CCCNc3nc(N)n4nc(-c5ccco5)nc4n3)cc2)cc(Cl)c1O` [Example A26, 5-(N-(4-(3-((7-amino-2-(furan-2-yl)-[1,2,4]triazolo[1,5-a][1,3,5]triazin-5-yl)amino)propyl)phenyl)sulfamoyl)-3-chloro-2-hydroxybenzamide sodium salt], the inhibition at 20 µM at A2aR (setting [2]) came out at 80%. Further, the “% inhibition at 20 μM (Percent inhibition data in CD73)” value in experiment [1] (20 μM compound, sodium salt) is 96%.

Take `NC(=O)c1cc(S(=O)(=O)Nc2ccc(NCCNc3nc(N)n4nc(-c5ccco5)nc4n3)cc2)cc(Cl)c1O` [Example C1, 5-(N-(4-((2-((7-amino-2-(furan-2-yl)-[1,2,4]triazolo[1,5-a][1,3,5]triazin-5-yl)amino)ethyl)amino)phenyl)sulfamoyl)-3-chloro-2-hydroxybenzamide]: the inhibition at 20 µM stood at 81% at A2aR (setting [2]) and 100% in experiment [1] (20 μM compound). Besides, the IC50 at A2aR was less than 25 nM; in experiment [1], 110 to 1000 nM.

As for `Nc1nc(NCCc2ccc(NS(=O)(=O)c3cc(Cl)c4c(c3)C(Cl)(Cl)C(=O)N4)cc2)nc2nc(-c3ccco3)nn12` [Example B2, N-(4-(2-((7-amino-2-(furan-2-yl)-[1,2,4]triazolo[1,5-a][1,3,5]triazin-5-yl)amino)ethyl)phenyl)-3,3,7-trichloro-2-oxoindoline-5-sulfonamide], the inhibition at 20 µM at A2aR (setting [2]) was 79%; in experiment [1] (20 μM compound) it was 39%.

`NC(=O)c1cc(S(=O)(=O)Nc2ccc(CCCNc3nc(N)n4nc(-c5ccco5)nc4n3)c(O)c2)cc(Cl)c1O` [Example A13, 5-(N-(4-(3-((7-amino-2-(furan-2-yl)-[1,2,4]triazolo[1,5-a][1,3,5]triazin-5-yl)amino)propyl)-3-hydroxyphenyl)sulfamoyl)-3-chloro-2-hydroxybenzamide]: the inhibition at 20 µM at A2aR (setting [2]) amounted to 83%; in experiment [1] (20 μM compound), 97%. Further, the 50% inhibitory concentration (IC50) on A2aR is 25.1 to 50 nM; in experiment [1], less than 100 nM.

Regarding `Nc1nc(NCCc2ccc(NS(=O)(=O)c3cc(Cl)c4c(c3)CC(=O)N4)cc2)nc2nc(-c3ccco3)nn12` [Example B1, N-(4-(2-((7-amino-2-(furan-2-yl)-[1,2,4]triazolo[1,5-a][1,3,5]triazin-5-yl)amino)ethyl)phenyl)-7-chloro-2-oxoindoline-5-sulfonamide], the inhibition at 20 µM was found to be 80% at A2aR (setting [2]) and 35% in experiment [1] (20 μM compound).

In the case of `NC(=O)c1cc(S(=O)(=O)Nc2ccc(CCCNc3nc(N)n4nc(-c5ccco5)nc4n3)cc2F)cc(Cl)c1O` [Example A15, 5-(N-(4-(3-((7-amino-2-(furan-2-yl)-[1,2,4]triazolo[1,5-a][1,3,5]triazin-5-yl)amino)propyl)-2-fluorophenyl)sulfamoyl)-3-chloro-2-hydroxybenzamide], the inhibition at 20 µM worked out at 83% on A2aR (setting [2]) and 96% in experiment [1] (20 μM compound). The concentration for half-maximal inhibition (IC50) in experiment [1] lay within 110 to 1000 nM.

Regarding `NC(=O)c1cc(S(=O)(=O)Nc2ccc(CCNc3nc(N)n4nc(-c5ccco5)nc4n3)c(F)c2)cc(Cl)c1O` [Example A6, 5-(N-(4-(2-((7-amino-2-(furan-2-yl)-[1,2,4]triazolo[1,5-a][1,3,5]triazin-5-yl)amino)ethyl)-3-fluorophenyl)sulfamoyl)-3-chloro-2-hydroxybenzamide], the inhibition at 20 µM was determined as 79% on A2aR (setting [2]) and 98% in experiment [1] (20 μM compound). For the same molecule, the half-inhibitory concentration (IC50) in experiment [1] lay in the range of 110 to 1000 nM.

`NC(=O)c1cc(S(=O)(=O)Nc2ccc(CCCCNc3nc(N)n4nc(-c5ccco5)nc4n3)cc2)cc(Cl)c1O` [Example A18, 5-(N-(4-(4-((7-amino-2-(furan-2-yl)-[1,2,4]triazolo[1,5-a][1,3,5]triazin-5-yl)amino)butyl)phenyl)sulfamoyl)-3-chloro-2-hydroxybenzamide]: the figures for the inhibition at 20 µM (on A2aR (setting [2]); in experiment [1] (20 μM compound)) were 82% and 87%, respectively. Moreover, the IC50 in experiment [1] is more than 1000 nM.

Regarding `NC(=O)c1cc(S(=O)(=O)Nc2ccc(CCNc3nc(N)n4nc(-c5ccco5)nc4n3)cc2)cc(Cl)c1O` [Example A3, 5-(N-(4-(2-((7-amino-2-(furan-2-yl)-[1,2,4]triazolo[1,5-a][1,3,5]triazin-5-yl)amino)ethyl)phenyl)sulfamoyl)-3-chloro-2-hydroxybenzamide], the inhibition at 20 µM at A2aR (setting [2]) stood at 83%; in experiment [1] (20 μM compound), 96%. Moreover, the IC50 at A2aR was less than 25 nM; in experiment [1], 110 to 1000 nM.

Consider `NC(=O)c1cc(S(=O)(=O)Nc2ccc(CCCOc3nc(N)n4nc(-c5ccco5)nc4n3)cc2)cc(Cl)c1O` [Example A12, 5-(N-(4-(3-((7-amino-2-(furan-2-yl)-[1,2,4]triazolo[1,5-a][1,3,5]triazin-5-yl)oxy)propyl)phenyl)sulfamoyl)-3-chloro-2-hydroxybenzamide], for which the inhibition at 20 µM came to 72% at A2aR (setting [2]) and 99% in experiment [1] (20 μM compound). In addition, the half-inhibitory concentration (IC50) on A2aR was more than 50 nM; in experiment [1], less than 100 nM.

For `CC(C)COC(=O)Nc1nc(NCCc2ccc(NS(=O)(=O)c3cc(Cl)c(O)c(C(N)=O)c3)cc2)nc2nc(-c3ccco3)nn12` [Example A9, Isobutyl (5-((4-((3-carbamoyl-5-chloro-4-hydroxyphenyl)sulfonamido)phenethyl)amino)-2-(furan-2-yl)-[1,2,4]triazolo[1,5-a][1,3,5]triazin-7-yl)carbamate], the inhibition at 20 µM on A2aR (setting [2]) was 82%; in experiment [1] (20 μM compound), 39%.

Turning to `NC(=O)c1cc(S(=O)(=O)Nc2ccc(CCNc3cc(N)n4nc(-c5ccco5)nc4n3)nc2)cc(Cl)c1O` [Example E2, 5-(N-(6-(2-((7-amino-2-(furan-2-yl)-[1,2,4]triazolo[1,5-a]pyrimidin-5-yl)amino)ethyl)pyridin-3-yl)sulfamoyl)-3-chloro-2-hydroxybenzamide], the inhibition at 20 µM turned out to be 85% on A2aR (setting [2]) and 94% in experiment [1] (20 μM compound). Moreover, the 50% inhibitory concentration (IC50) in experiment [1] was 110 to 1000 nM.

Values taken from US20230027075A1, “SULFONAMIDE COMPOUNDS TARGETING CD73 AND ADENOSINE RECEPTORS” (Aurigene Discovery Technologies Limited, priority 2019, published 2023).
